Assay results: article PMC8505367 (Clinical Pharmacokinetics, 2021)

Columns and labels:
[1] = tested on: plasma protein; details: cited from earlier work
[2] = assay type: in vivo, human; details: oral, post-dose fasting time 120 min, model-derived
[3] = reducing gastric pH with omeprazole; cited from earlier work
[4] = assay type: in vivo, human; details: subjects with T2D, N = 55, oral, recommended dosing conditions; geometric mean of typical PK parameter values for each subject

## CC[C@H](C)[C@H](NC(=O)[C@H](Cc1ccccc1)NC(=O)[C@H](CCC(=O)O)NC(=O)[C@H](CCCCNC(=O)COCCOCCNC(=O)COCCOCCNC(=O)CC[C@H](NC(=O)CCCCCCCCCCCCCCCCC(=O)O)C(=O)O)NC(=O)[C@H](C)NC(=O)[C@H](C)NC(=O)[C@H](CCC(N)=O)NC(=O)CNC(=O)[C@H](CCC(=O)O)NC(=O)[C@H](CC(C)C)NC(=O)[C@H](Cc1ccc(O)cc1)NC(=O)[C@H](CO)NC(=O)[C@H](CO)NC(=O)[C@@H](NC(=O)[C@H](CC(=O)O)NC(=O)[C@H](CO)NC(=O)[C@@H](NC(=O)[C@H](Cc1ccccc1)NC(=O)[C@@H](NC(=O)CNC(=O)[C@H](CCC(=O)O)NC(=O)C(C)(C)NC(=O)[C@@H](N)Cc1cnc[nH]1)[C@@H](C)O)[C@@H](C)O)C(C)C)C(=O)N[C@@H](C)C(=O)N[C@@H](Cc1c[nH]c2ccccc12)C(=O)N[C@@H](CC(C)C)C(=O)N[C@H](C(=O)N[C@@H](CCCNC(=N)N)C(=O)NCC(=O)N[C@@H](CCCNC(=N)N)C(=O)NCC(=O)O)C(C)C [semaglutide]
[1]
  Plasma protein binding: > 99%
[2]
  Bioavailability, plateau with longer post-dose fasting time: around 1.4%
[3]
  Change in semaglutide exposure: small but not clinically relevant increase
[4]
  ka (absorption rate): 2.09 h⁻¹
